Read-outs that look alike come from different tables or passages of the source.
Legend:
[1] = test system: U2OS cells transfected with nuclear export reporter construct (NLS-GFP-NES); experiment: Nuclear export efficiency assay (NLS-GFP-NES reporter); format: cell-based; conditions: 24 hours, KPT-330 at 0.5 μM, 100 reporter-expressing cells scored
Excerpt: A GFP reporter construct was made using the backbone of pEGFP-N1 vector. Specifically, the green fluorescence (GFP) was in-frame tagged with 3 consecutive copies of nuclear localization sequence (NLS) of SV40 large T antigen to the N-terminus and 3 consecutive copies of nuclear export sequences (NES) of HIV Rev to the C-terminus. The resulting construct encodes NLS-GFP-NES fusion protein capable of shuttling freely between the nucleus and the cytoplasm. The construct DNA was transfection into U2OS cells using Lipofectamine 2000 reagent (Life Technologies) according to product instruction. Six hours post transfection, the cells were treated with vehicle, CS, KPT-330, and K+CS for 24 hours. Finally, the treated cells were fixed with 4% PFA, and permeabilized, and stained for endogenous expression of CRM1 protein with anti-CRM1 antibody (Cell Signaling, Danvers, Mass.; catalog number: 46249, dilution 1:1500). Cell images were collected on a Zeiss LSM 780 confocal microscope.

[2] = Viability of nonmalignant cells, Annexin V/PI assay; format: cell-based, human; conditions: human, KPT-330 0.05-0.5 μM, CS 1-3 mM, read-out: % viability normalized for respective controls
Excerpt: (§1) Primary patient samples were obtained. The mononuclear cells were obtained from bone marrow, spleen, peripheral blood and lymph nodes as follows. Freshly obtained tissue (lymph node, spleen, bone marrow) was placed in mesh screen and using a syringe plunger, the tissue was pressed into a petri dish. Samples were then rinsed through the screen using measured amounts of RPMI until all tissue has been pressed through. […] Subsequently the mononuclear cells were isolated via centrifugation in the presence of ficoll and this step was again repeated following washing the cells with RPMI media.
(§2) To isolate peripheral blood mononuclear cells (PBMCs), freshly obtained patient blood sample of patients were centrifuged in the present of ficoll and this step was repeated twice following washing the cells with PBS. Following isolating the mononuclear cells, the viability was assessed and ascertained proper viability above 80% prior to conduct respective experiments. Non-malignant cells were confirmed not to have a malignant condition by pathology review of the tissue.

DHL6 cells = experiment: Cell viability, Annexin V/PI assay; conditions: DHL6 (DLBCL); 48 hours; KPT-330 0.1-1.0 μM, CS 1-3 mM, single agent or combination
Procedure: Cell lines were purchased from the cell line repositories ATCC (Manassas, Va.) or DSMZ (Braunschweig, Germany). These included MCL cell lines: JeKo-1, Mino; TCL cell lines: Karpas-299, SR-786; DLBCL cell lines: OCI-Ly1 (LY-1), OCI-Ly3 (LY-3), OCI-Ly19 (LY-19), SU-DHL-6 (DHL-6); MM cell lines: RPMI, U266, OPM2, Xgl, KMS2; ALL cell lines: CRL-1783; non-small cell lung cancer: NCI-H460, A549, HCC827; small cell lung cancer: H1048; sarcoma: Fuji, SW872. Cell lines were cultured according to instruction.
KPT-330 purchased from Selleckchem (cat no: S7252) was dissolved in DMSO while CS (Santa Cruz, Calif.S 2016-36-6), sodium salicylate (Sigma-Aldrich, cat no: S3007), acetyl salicylate (Sigma-Aldrich, cat no: CAS 50-78-2) was diluted in PBS. Ketorolac (Sigma-Aldrich, cat no: 1356665), Bortezomib (Selleckchem, cat no: S1013), gemcitabine (Sigma-Aldrich, cat no: G6423), Leptomycin-B (Sigma-Aldrich, cat no: L2913-2X) and KPT-185 (Selleckchem, cat no: S7125) were dissolved in DMSO. The concentration range of KPT-330 was 0.05-1.0 μM while CS was 1-3 mM were used for ex vivo treatment and incubation time ranged from 24 hours to 72 hours. For the PARP inhibitor assay, olaparib 10 μM (SelleckChem, cat no: AZD2281 Ku-0059436) was used.
The viability assessment for cell lines and primary patients samples were conducted with the Annexin V/PI method.

Nonmalignant BM MNC = experiment: Viability of nonmalignant cells, Annexin V/PI assay; format: cell-based, human; conditions: 48 h, KPT-330 0.05-0.5 μM, CS 1-3 mM
Excerpt: as §1, §2

Nonmalignant PBMC = experiment: as above; format: cell-based, human; conditions: 48 h, KPT-330 0.05-0.5 μM, CS 1-3 mM
Excerpt: as §1, §2

Nonmalignant splenic MNC = experiment: as above; format: cell-based, human; conditions: 48 h, KPT-330 0.05-0.5 μM, CS 1-3 mM
Excerpt: as §1, §2

## O=C(/C=C\n1cnc(-c2cc(C(F)(F)F)cc(C(F)(F)F)c2)n1)NNc1cnccn1 [KPT-330, (Z)-3-[3-[3,5-bis (trifluoromethyl)phenyl]-1,2,4-triazol-1-yl]-N′-pyrazin-2-ylprop-2-enehydrazide]
[1]
  cells with complete nuclear localization of GFP: 28%
[2]; nonmalignant bone marrow mononuclear cells, BM MNC
  viability at 48 h: 78%
[2]; nonmalignant peripheral blood mononuclear cells (PBMC)
  viability at 48 h: 86%
[2]; nonmalignant splenic mononuclear cells, Splenic MNC (sample of r39)
  viability at 48 h: 84%
[2]; nonmalignant splenic mononuclear cells, Splenic MNC (sample of r40)
  viability at 48 h: 66%
[2]; nonmalignant splenic mononuclear cells, Splenic MNC (sample of r41)
  viability at 48 h: 59%
[2]; nonmalignant splenic mononuclear cells, Splenic MNC (sample of r42)
  viability at 48 h: 58%

## C[N+](C)(C)CCO.O=C([O-])c1ccccc1O [CS, choline salicylate]
DHL6 cells
  % viability normalized for respective controls: 101%
Nonmalignant BM MNC
  % viability normalized for respective controls: 82%
Nonmalignant PBMC
  % viability normalized for respective controls: 78%
Nonmalignant splenic MNC; Splenic MNC (sample of r39)
  % viability normalized for respective controls: 82%
Nonmalignant splenic MNC; Splenic MNC (sample of r40)
  % viability normalized for respective controls: 64%
Nonmalignant splenic MNC; Splenic MNC (sample of r41)
  % viability normalized for respective controls: 76%
Nonmalignant splenic MNC; Splenic MNC (sample of r42)
  % viability normalized for respective controls: 76%

From US20220218725A1, “METHODS AND MATERIALS FOR TREATING CANCER” (Mayo Foundation for Medical Education and Research, priority 2019, published 2022)
